In article PMC5026937 (Antiviral research, 2016):
Entries after “also recorded” stand apart in the source; their conditions may differ.

What was measured:
A/WSN/33 (H1N1) [1] = assay type: cell-based
A/Udorn/72 (H3N2) = assay type: cell-based
[2] = system: A/Switzerland/9715293/2013 (H3N2); assay type: cell-based
[3] = system: A/California/07/2009 (H1N1); assay type: cell-based
A/Texas/04/2009 (H1N1) = assay type: cell-based
[4] = system: A/Denmark/524/2009 (H1N1); assay type: cell-based
[5] = system: A/Denmark/528/2009 (H1N1); assay type: cell-based
[6] = system: B/Wisconsin/1/2010 (Yamagata); assay type: cell-based
[7] = system: B/Brisbane/60/2008 (Victoria); assay type: cell-based
[8] = system: B/Phuket/3073/2013 (Yamagata); assay type: cell-based
A/WSN/33 (H1N1) [9] = assay type: cell-based, Influenza A virus
[10] = system: clinically isolated influenza A and B viruses; assay type: cell-based
[11] = system: isomerase activity of CypA; conditions: ref Ni et al., 2009; cited from earlier work
[12] = biological target: A/WSN/33 (H1N1) viral polymerase activity (Influenza A virus, UniProt P15682); assay type: cell-based, influenza A/WSN/33 virus
A/WSN/33 (H1N1) viral polymerase activity, sequence (P15682 whole entry, looked up): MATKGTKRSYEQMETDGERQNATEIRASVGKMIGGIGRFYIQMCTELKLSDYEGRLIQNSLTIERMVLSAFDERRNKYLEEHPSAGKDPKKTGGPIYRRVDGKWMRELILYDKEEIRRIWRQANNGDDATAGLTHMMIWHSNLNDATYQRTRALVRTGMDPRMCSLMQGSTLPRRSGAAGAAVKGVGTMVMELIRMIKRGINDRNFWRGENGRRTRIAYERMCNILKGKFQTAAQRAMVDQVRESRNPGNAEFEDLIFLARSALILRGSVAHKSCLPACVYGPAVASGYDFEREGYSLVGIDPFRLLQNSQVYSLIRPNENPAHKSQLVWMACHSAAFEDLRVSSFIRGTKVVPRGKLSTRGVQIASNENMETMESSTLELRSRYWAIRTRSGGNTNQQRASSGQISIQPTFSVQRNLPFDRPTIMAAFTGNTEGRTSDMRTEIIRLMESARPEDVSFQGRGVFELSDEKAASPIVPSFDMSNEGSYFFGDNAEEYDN

Row | Compound | Sensitivity of influenza strain to drug (A/WSN/33 (H1N1) [1]) | Sensitivity of influenza strain to drug (A/Udorn/72 (H3N2)) | Sensitivity of influenza strain to drug [2] | Sensitivity of influenza strain to drug [3] | Sensitivity of influenza strain to drug (A/Texas/04/2009 (H1N1)) | Sensitivity of influenza strain to drug [4] | Sensitivity of influenza strain to drug [5] | Sensitivity of influenza strain to drug [6] | Sensitivity of influenza strain to drug [7] | Sensitivity of influenza strain to drug [8] | also measured
1 | NC12CC3CC(CC(C3)C1)C2 [Amantadine, amantadine] | R (S31N) | S | R (S31N) | R (S31N) | R (S31N) | R(S31N) | R (S31N) | R | R | R | –
2 | CCC(CC)O[C@@H]1C=C(C(=O)O)C[C@H](N)[C@H]1NC(C)=O [Oseltamivir carboxylate, oseltamivir carboxylate] | S | S | S | S | R (H275Y) | S | R (H275Y) | S | S | S | antiviral effect by time of addition (A/WSN/33 (H1N1) [9]): potent antiviral effect even when added 8 hours post initial viral infection
3 | O=C(NC(=O)c1c(F)cccc1Cl)NC1c2ccccc2-c2ccccc21 [TMN355 (2)] | – | – | – | – | – | – | – | – | – | – | effect on replication of several influenza A and B strains [10]: had no effect on the replication; potency in inhibiting the isomerase activity of CypA relative to CsA (1) [11]: 27 times
4 | Cc1onc(-c2ccccc2)c1C(=O)N1CCN(c2ccc([N+](=O)[O-])cc2Cl)CC1 [nucleozin (21), nucleozin] | – | – | – | – | – | – | – | – | – | – | viral polymerase activity (normalized luciferase ratio) [12]: completely inhibited the viral polymerase activity
5 | Cyclosporine C [CsC (3)] | – | – | – | – | – | – | – | – | – | – | antiviral efficacy against A/WSN/33 (H1N1) compared with CsA (1) (A/WSN/33 (H1N1) [1]): less active; also recorded: slightly less effective than CsA (1)
